According to ChEMBL document CHEMBL1134411, “Antitumor benzothiazoles. 14. Synthesis and in vitro biological properties of fluorinated 2-(4-aminophenyl)benzothiazoles” (2001):

Legend:
Format in all cases: functional
MCF7 = assay: Growth inhibition against breast cancer line MCF-7; details: Homo sapiens
[1] = Mean GI50 values are recorded over the NCI 60-cell panel.; details: Homo sapiens
[2] = Growth inhibition against ovarian cancer cell line IGROV1; details: Homo sapiens, IGROV-1
NCI-H226 = assay: Growth inhibition against non-small cell lung cancer cell line […]; details: Homo sapiens
OVCAR-5 = assay: Growth inhibition against ovarian cancer cell line OVCAR-5; details: Homo sapiens
T47D = assay: Growth inhibition against breast cancer line T-47-D; details: Homo sapiens
OVCAR-4 = assay: Growth inhibition against ovarian cancer cell line OVCAR-4; details: Homo sapiens
[3] = Growth inhibition against cancer cell line TH-10; details: Homo sapiens, Cancer cell lines
NCI-H460 = assay: Growth inhibition against non-small cell lung cancer cell line NCI-H460; details: Homo sapiens
HCC 2998 = assay: Growth inhibition against colon cancer cell line HCC2998; details: Homo sapiens

Compound	GI50 (MCF7)	GI50 (NCI-H226)	GI50 (OVCAR-5)	GI50 (T47D)	GI50 (OVCAR-4)	GI50 (NCI-H460)	GI50 (HCC 2998)	GI50 [1]	GI50 [2]	GI50 [3]
Cc1cc(-c2nc3ccc(O)cc3s2)ccc1N	56200 nM	60300 nM	83200 nM	22400 nM	37200 nM	–	> 100000 nM	41700 nM	47900 nM	77600 nM
Nc1ccc(-c2nc3cc(F)ccc3s2)cc1I	< 10 nM	10200 nM	280 nM	130 nM	< 10 nM	–	< 10 nM	7600 nM	< 10 nM	70 nM
Cc1cc(-c2nc3cc(F)c(F)cc3s2)ccc1N	< 10 nM	–	> 100000 nM	< 10 nM	60300 nM	> 100000 nM	> 100000 nM	67600 nM	< 10 nM	< 10 nM
Nc1ccc(-c2nc3ccc(F)cc3s2)cc1I	< 10 nM	70 nM	100 nM	< 10 nM	30 nM	> 100000 nM	320 nM	33900 nM	< 10 nM	< 10 nM
Nc1ccc(-c2nc3ccccc3s2)cc1F	< 10 nM	< 10 nM	< 10 nM	< 10 nM	18600 nM	< 10 nM	100 nM	14500 nM	< 10 nM	< 10 nM
Nc1ccc(-c2nc3cc(F)ccc3s2)cc1Cl	< 10 nM	30 nM	< 10 nM	40 nM	320 nM	40 nM	–	5800 nM	< 10 nM	–
Cc1cc(-c2nc3c(F)cccc3s2)ccc1N	< 10 nM	5500 nM	1700 nM	< 10 nM	20900 nM	1000 nM	> 100000 nM	34600 nM	22900 nM	–
Nc1ccc(-c2nc3ccccc3s2)cc1C(F)(F)F	1500 nM	15100 nM	17400 nM	5400 nM	15800 nM	14500 nM	10700 nM	14100 nM	2600 nM	13200 nM
Cc1cc(-c2nc3ccc(F)cc3s2)ccc1N	< 10 nM	60300 nM	> 100000 nM	–	10 nM	100 nM	34700 nM	47900 nM	1300 nM	< 10 nM

Continued, in another order:

GI50 (MCF7)	GI50 (NCI-H226)	GI50 (OVCAR-5)	GI50 (T47D)	GI50 (OVCAR-4)	GI50 (NCI-H460)	GI50 (HCC 2998)	Compound	GI50 [1]	GI50 [2]	GI50 [3]
< 10 nM	18600 nM	1900 nM	20 nM	1100 nM	29500 nM	–	Cc1cc(-c2nc3ccccc3s2)ccc1N	12900 nM	< 10 nM	< 10 nM
< 10 nM	46800 nM	26900 nM	–	22900 nM	24500 nM	17800 nM	Nc1ccc(-c2nc3ccc(F)cc3s2)cc1	30200 nM	21300 nM	26300 nM
< 10 nM	< 10 nM	29500 nM	260 nM	13500 nM	870 nM	–	Nc1ccc(-c2nc3cc(F)ccc3s2)cc1	23400 nM	11500 nM	11500 nM
< 10 nM	1300 nM	< 10 nM	< 10 nM	< 10 nM	50 nM	–	Cc1cc(-c2nc3cc(F)ccc3s2)ccc1N	4400 nM	< 10 nM	< 10 nM
< 10 nM	130 nM	50 nM	20 nM	24000 nM	110 nM	< 10 nM	Nc1ccc(-c2nc3cc(F)ccc3s2)cc1Br	5100 nM	< 10 nM	50 nM
< 10 nM	–	1300 nM	20 nM	7400 nM	4200 nM	13800 nM	Cc1cc(-c2nc3cccc(F)c3s2)ccc1N	20000 nM	70 nM	40 nM
< 10 nM	14100 nM	70 nM	–	20 nM	100 nM	90 nM	Nc1ccc(-c2nc3ccc(F)cc3s2)cc1Cl	22300 nM	< 10 nM	< 10 nM
